Test [1] has as its target Serine/threonine-protein kinase OSR1 (Homo sapiens) (UniProt O95747). The test is described as follows: Binding affinity to wild-type human full length OSR1 (M1 to S527 residues) expressed in mammalian expression system assessed as residual binding level at 10 uM by Kinomescan method relative to control.
Test [2] addresses Fibroblast growth factor receptor 1 (Homo sapiens) (UniProt P11362). Put plainly: Binding affinity to wild-type human partial length FGFR1 (P357 to V669 residues) expressed in bacterial expression system assessed as residual binding level at 10 uM by Kinomescan method relative to control.
The target of test [3] is Receptor tyrosine-protein kinase erbB-4 (Homo sapiens) (UniProt Q15303). The test is described as follows: Binding affinity to wild-type human partial length ERBB4 (L690 to K994 residues) expressed in bacterial expression system assessed as residual binding level at 10 uM by Kinomescan method relative to control.
Test [4] has as its target Serine/threonine-protein kinase Nek2 (Homo sapiens) (UniProt P51955). Put plainly: Binding affinity to wild-type human partial length NEK2 (M1 to K309 residues) expressed in bacterial expression system assessed as residual binding level at 10 uM by Kinomescan method relative to control.
Test [5] has as its target Serine/threonine-protein kinase Nek4 (Homo sapiens) (UniProt P51957). Put plainly: Binding affinity to wild-type human full length NEK4 (M1 to F841 residues) expressed in mammalian expression system assessed as residual binding level at 10 uM by Kinomescan method relative to control.
For test [6], the system named is Receptor-type tyrosine-protein kinase FLT3 (Homo sapiens), P36888 [N841I]. Put plainly: Binding affinity to human partial length FLT3 N841I mutant (V592 to Y969 residues) expressed in bacterial expression system assessed as residual binding level at 10 uM by Kinomescan method relative to control.
Test [7] concerns the target Rho-associated protein kinase 1 (Homo sapiens) (UniProt Q13464). Put plainly: Binding affinity to wild-type human partial length ROCK1 (M1 to R415 residues) expressed in mammalian expression system assessed as residual binding level at 10 uM by Kinomescan method relative to control.
Test [8] has as its target Casein kinase I isoform gamma-2 (Homo sapiens) (UniProt P78368). Put plainly: Binding affinity to wild-type human full length CSNK1G2 (M1 to K415 residues) expressed in bacterial expression system assessed as residual binding level at 10 uM by Kinomescan method relative to control.
For test [9], the target named is Serine/threonine-protein kinase SBK1 (Homo sapiens) (UniProt Q52WX2). The test is described as follows: Binding affinity to wild-type human partial length SBK1 (P23 to P348 residues) expressed in mammalian expression system assessed as residual binding level at 10 uM by Kinomescan method relative to control.
Test [10] has as its target Receptor-type tyrosine-protein kinase FLT3 (Homo sapiens) (UniProt P36888). The test is described as follows: Binding affinity to wild-type human partial length FLT3 (V592 to Y969 residues) expressed in bacterial expression system assessed as residual binding level at 10 uM by Kinomescan method relative to control.
Test [11] deals with Serine/threonine-protein kinase D2 (Homo sapiens) (UniProt Q9BZL6). The test is described as follows: Binding affinity to wild-type human partial length PRKD2 (A519 to E838 residues) expressed in bacterial expression system assessed as residual binding level at 10 uM by Kinomescan method relative to control.
Test [12] concerns the target Ribosomal protein S6 kinase alpha-3 (Homo sapiens) (UniProt P51812). The test is described as follows: Binding affinity to wild-type human partial length N- terminal RSK2 kinase domain 1 (M1 to D394 residues) expressed in mammalian expression system assessed as residual binding level at 10 uM by Kinomescan method relative to control.
For test [13], the target named is Vascular endothelial growth factor receptor 1 (Homo sapiens) (UniProt P17948). Put plainly: Binding affinity to wild-type human partial length FLT1 (R781 to F1239 residues) expressed in bacterial expression system assessed as residual binding level at 10 uM by Kinomescan method relative to control.
The target of test [14] is Tyrosine-protein kinase FRK (Homo sapiens) (UniProt P42685). The test is described as follows: Binding affinity to wild-type human partial length FRK (A215 to F503 residues) expressed in bacterial expression system assessed as residual binding level at 10 uM by Kinomescan method relative to control.
In test [15] the target is Proto-oncogene tyrosine-protein kinase Src (Homo sapiens) (UniProt P12931). The test is described as follows: Binding affinity to wild-type human partial length SRC (L240 to L536 residues) expressed in bacterial expression system assessed as residual binding level at 10 uM by Kinomescan method relative to control.
The target of test [16] is Angiopoietin-1 receptor (Homo sapiens) (UniProt Q02763). The test is described as follows: Binding affinity to wild-type human partial length TIE2 (N804 to T1112 residues) expressed in bacterial expression system assessed as residual binding level at 10 uM by Kinomescan method relative to control.
In test [17] the test system is Mast/stem cell growth factor receptor Kit (Homo sapiens), P10721 [D816H]. Put plainly: Binding affinity to human partial length KIT D816H mutant (I571 to D952 residues) expressed in mammalian expression system assessed as residual binding level at 10 uM by Kinomescan method relative to control.
Test [18] deals with Serine/threonine-protein kinase RIO1 (Homo sapiens) (UniProt Q9BRS2). Put plainly: Binding affinity to wild-type human full length RIOK1 (M1 to K568 residues) expressed in bacterial expression system assessed as residual binding level at 10 uM by Kinomescan method relative to control.
Test [19] has as its target Leucine-rich repeat serine/threonine-protein kinase 2 (Homo sapiens) (UniProt Q5S007). Put plainly: Binding affinity to wild-type human partial length LRRK2 (H970 to E2527 residues) expressed in mammalian expression system assessed as residual binding level at 10 uM by Kinomescan method relative to control.
The target of test [20] is Mitogen-activated protein kinase 6 (Homo sapiens) (UniProt Q16659). The test is described as follows: Binding affinity to wild-type human partial length ERK3 (M1 to P413 residues) expressed in bacterial expression system assessed as residual binding level at 10 uM by Kinomescan method relative to control.
In test [21] the test system is Epidermal growth factor receptor (Homo sapiens), P00533 [G719S]. The test is described as follows: Binding affinity to human partial length EGFR G719S mutant (R669 to V1011 residues) expressed in bacterial expression system assessed as residual binding level at 10 uM by Kinomescan method relative to control.
The target in test [22] is Serine/threonine-protein kinase 17A (Homo sapiens) (UniProt Q9UEE5). Put plainly: Binding affinity to wild-type human partial length DRAK1 (R32 to E363 residues) expressed in bacterial expression system assessed as residual binding level at 10 uM by Kinomescan method relative to control.
In test [23] the target is Cyclin-dependent kinase 16 (Homo sapiens) (UniProt Q00536). Put plainly: Binding affinity to wild-type human partial length PCTK1 (G160 to A474 residues) expressed in mammalian expression system assessed as residual binding level at 10 uM by Kinomescan method relative to control.
Test [24] addresses Cyclin-dependent kinase 14 (Homo sapiens) (UniProt O94921). The test is described as follows: Binding affinity to wild-type human full length PFTK1 (M1 to H451 residues) expressed in bacterial expression system assessed as residual binding level at 10 uM by Kinomescan method relative to control.

Rho-associated protein kinase 1 (Homo sapiens), sequence (Q13464 2-1354 limits assumed): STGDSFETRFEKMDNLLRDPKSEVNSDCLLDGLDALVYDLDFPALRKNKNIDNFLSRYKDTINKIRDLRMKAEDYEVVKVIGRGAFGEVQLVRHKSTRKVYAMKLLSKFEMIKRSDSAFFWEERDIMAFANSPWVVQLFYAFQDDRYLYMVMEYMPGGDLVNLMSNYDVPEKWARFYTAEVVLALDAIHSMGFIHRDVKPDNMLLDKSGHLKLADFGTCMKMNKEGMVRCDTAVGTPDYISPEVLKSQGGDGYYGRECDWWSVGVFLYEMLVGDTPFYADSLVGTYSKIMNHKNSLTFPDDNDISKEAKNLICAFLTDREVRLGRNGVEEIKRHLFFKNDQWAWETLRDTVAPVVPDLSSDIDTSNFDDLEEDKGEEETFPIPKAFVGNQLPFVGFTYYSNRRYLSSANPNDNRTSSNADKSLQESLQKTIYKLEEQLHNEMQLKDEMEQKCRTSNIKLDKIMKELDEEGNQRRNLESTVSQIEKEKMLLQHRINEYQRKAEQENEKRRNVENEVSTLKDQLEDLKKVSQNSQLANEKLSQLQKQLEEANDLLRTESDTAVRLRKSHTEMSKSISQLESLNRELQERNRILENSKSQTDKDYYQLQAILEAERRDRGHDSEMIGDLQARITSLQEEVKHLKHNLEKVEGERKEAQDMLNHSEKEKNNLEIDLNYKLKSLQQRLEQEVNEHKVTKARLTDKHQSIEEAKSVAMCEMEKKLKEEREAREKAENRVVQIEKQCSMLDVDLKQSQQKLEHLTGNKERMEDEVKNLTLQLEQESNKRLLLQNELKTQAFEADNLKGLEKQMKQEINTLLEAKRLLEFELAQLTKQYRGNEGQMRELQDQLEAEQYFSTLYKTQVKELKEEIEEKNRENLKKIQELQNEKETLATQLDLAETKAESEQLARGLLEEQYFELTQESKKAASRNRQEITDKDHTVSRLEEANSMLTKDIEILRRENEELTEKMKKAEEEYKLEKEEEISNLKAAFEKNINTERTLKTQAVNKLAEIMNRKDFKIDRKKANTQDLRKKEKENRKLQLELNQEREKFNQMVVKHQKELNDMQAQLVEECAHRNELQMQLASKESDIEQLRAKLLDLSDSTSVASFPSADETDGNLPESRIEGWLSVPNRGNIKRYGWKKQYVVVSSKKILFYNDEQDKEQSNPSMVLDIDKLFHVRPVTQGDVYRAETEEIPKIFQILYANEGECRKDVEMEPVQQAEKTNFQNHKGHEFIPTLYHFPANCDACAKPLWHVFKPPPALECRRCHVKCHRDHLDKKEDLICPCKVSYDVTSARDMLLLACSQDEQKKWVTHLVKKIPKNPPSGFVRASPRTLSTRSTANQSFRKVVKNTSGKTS
Serine/threonine-protein kinase OSR1 (Homo sapiens), sequence (O95747 2-527 limits assumed): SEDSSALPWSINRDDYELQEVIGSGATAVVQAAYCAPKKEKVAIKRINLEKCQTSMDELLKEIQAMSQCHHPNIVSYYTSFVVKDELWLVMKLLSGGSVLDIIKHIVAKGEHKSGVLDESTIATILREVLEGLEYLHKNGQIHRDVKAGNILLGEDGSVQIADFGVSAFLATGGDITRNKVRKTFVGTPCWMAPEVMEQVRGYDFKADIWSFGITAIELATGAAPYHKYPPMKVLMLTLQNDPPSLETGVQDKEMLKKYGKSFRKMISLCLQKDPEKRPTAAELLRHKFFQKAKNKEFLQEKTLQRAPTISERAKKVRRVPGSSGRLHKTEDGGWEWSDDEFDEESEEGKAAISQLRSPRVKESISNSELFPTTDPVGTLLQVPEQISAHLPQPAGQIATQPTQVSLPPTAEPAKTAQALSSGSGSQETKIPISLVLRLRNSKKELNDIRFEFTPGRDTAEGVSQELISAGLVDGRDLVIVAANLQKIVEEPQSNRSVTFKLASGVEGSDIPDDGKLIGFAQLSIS
Mast/stem cell growth factor receptor Kit (Homo sapiens), P10721 [D816H], sequence (P10721 whole entry D816H, the tested form may be a part): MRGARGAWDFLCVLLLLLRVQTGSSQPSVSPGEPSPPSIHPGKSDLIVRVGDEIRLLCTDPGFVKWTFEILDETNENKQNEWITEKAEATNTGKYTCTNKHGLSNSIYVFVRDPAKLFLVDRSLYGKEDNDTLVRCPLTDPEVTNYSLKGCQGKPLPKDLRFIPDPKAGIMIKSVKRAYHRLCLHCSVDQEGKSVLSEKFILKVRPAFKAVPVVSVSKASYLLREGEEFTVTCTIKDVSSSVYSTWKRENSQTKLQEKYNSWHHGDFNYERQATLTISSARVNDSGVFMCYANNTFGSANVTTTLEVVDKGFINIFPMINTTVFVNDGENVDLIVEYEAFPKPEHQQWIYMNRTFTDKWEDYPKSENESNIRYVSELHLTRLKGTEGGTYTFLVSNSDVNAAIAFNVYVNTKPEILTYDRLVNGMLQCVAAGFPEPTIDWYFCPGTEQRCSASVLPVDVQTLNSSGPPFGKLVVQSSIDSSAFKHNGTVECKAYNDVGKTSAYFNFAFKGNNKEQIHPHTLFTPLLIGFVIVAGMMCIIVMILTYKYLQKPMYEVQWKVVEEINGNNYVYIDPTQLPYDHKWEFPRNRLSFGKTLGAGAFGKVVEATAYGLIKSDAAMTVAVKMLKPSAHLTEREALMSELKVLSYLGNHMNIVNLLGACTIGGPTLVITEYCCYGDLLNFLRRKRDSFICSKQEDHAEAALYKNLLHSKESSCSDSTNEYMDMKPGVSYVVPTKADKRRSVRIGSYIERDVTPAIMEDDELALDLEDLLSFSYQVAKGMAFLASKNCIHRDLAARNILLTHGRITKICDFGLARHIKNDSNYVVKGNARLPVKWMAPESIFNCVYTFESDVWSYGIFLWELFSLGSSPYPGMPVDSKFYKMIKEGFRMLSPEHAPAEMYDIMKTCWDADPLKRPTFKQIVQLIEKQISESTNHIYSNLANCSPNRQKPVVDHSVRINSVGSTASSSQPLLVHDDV
Angiopoietin-1 receptor (Homo sapiens), sequence (Q02763 whole entry, the tested form may be a part): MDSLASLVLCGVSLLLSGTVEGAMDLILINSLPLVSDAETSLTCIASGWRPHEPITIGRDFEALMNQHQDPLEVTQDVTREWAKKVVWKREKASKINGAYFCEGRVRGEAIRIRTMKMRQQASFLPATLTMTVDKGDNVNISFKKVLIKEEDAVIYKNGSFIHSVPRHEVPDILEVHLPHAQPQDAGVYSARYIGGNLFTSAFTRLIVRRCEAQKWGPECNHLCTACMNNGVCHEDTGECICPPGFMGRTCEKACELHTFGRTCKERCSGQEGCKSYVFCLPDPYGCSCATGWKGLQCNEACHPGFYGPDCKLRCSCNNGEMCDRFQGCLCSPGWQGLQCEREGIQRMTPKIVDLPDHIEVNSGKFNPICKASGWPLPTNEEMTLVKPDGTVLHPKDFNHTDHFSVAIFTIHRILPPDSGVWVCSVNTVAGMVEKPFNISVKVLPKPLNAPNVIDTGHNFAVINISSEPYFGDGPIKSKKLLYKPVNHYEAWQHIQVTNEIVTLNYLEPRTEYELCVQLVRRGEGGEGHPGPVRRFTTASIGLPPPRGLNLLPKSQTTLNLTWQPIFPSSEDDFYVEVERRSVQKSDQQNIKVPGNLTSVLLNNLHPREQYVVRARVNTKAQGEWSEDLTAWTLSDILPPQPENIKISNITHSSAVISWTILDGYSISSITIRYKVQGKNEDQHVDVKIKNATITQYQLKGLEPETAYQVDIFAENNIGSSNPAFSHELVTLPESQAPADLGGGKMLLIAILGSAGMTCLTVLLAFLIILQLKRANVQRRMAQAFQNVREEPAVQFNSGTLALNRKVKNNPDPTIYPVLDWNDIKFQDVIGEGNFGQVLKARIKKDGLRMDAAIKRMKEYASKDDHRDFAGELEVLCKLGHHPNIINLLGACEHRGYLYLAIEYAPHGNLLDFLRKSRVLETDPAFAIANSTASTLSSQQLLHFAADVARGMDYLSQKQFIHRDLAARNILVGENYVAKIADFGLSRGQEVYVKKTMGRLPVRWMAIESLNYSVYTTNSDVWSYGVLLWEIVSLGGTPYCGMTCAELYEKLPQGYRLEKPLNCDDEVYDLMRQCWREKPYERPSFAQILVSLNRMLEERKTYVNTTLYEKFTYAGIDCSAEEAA
Serine/threonine-protein kinase 17A (Homo sapiens), sequence (Q9UEE5 whole entry, the tested form may be a part): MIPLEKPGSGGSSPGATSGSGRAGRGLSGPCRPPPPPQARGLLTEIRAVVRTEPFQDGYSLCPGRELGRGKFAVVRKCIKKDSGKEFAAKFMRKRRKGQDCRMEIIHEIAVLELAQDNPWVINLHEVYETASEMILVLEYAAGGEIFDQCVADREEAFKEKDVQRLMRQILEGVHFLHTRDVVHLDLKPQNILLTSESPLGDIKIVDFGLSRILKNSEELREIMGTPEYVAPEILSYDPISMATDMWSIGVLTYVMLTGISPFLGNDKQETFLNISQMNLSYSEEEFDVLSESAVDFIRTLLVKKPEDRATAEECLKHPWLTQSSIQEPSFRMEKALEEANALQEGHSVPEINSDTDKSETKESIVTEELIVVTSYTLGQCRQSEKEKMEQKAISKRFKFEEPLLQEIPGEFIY
Cyclin-dependent kinase 14 (Homo sapiens), sequence (O94921 whole entry, the tested form may be a part): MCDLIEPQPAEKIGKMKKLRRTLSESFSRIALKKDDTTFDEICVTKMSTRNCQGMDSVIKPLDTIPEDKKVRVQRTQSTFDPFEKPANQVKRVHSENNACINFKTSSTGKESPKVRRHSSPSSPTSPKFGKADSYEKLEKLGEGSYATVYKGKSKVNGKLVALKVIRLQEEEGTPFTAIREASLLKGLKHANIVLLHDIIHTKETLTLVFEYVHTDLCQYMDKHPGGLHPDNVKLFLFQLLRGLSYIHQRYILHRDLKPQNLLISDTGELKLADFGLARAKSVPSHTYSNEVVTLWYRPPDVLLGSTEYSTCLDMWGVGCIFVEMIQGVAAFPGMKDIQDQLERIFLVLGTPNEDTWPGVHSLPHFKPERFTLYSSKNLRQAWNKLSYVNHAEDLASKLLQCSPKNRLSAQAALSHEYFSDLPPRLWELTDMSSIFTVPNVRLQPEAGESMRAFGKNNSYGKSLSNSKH

As to `CC(C)N1C(=O)C(NCCCN(C)C)=C(c2cn(C)c3ccccc23)C1=O.Cl`, the Activity in [1] was 77%; in test [2], 84%; in test [3], 100%; in test [4] it was 94%; in [5], 96%; in [6] it was 100%. For the same compound, the Activity worked out at 96% in [7]; 91% in [8]; 100% in test [9]; 100% in [10]; 93% in [11]; 92% in test [12]. For the same compound, the Activity worked out at 82% in test [13]; 100% in [14]; 93% in test [15]; 93% in test [16]; 96% in test [17]; 100% in [18]. Also, the Activity in test [19] stood at 94%; in test [20], 100%; in test [21], 100%; in test [22] it was 97%; in test [23], 92%; in test [24] it was 100%.

Values taken from ChEMBL document CHEMBL4304811, “Development of a Water-Soluble Indolylmaleimide Derivative IM-93 Showing Dual Inhibition of Ferroptosis and NETosis” (ACS Med Chem Lett, 2019).
